From US20220087983A1, “ACTIVATING PYRUVATE KINASE R” (FORMA Therapeutics, Inc., priority 2020, published 2022)
“And” between values parts separate entries of the source, which are not always exact repeats. Equal entries are not always repeated.

Experiments:
[1] = Phase 1: hematologic and hemolytic parameters in SCD patients; assay type: in vivo, human; conditions: blinded 300 mg Compound 1/placebo QD, individual patients Pt 1-3
Text: Laboratory changes relative to pretreatment for each pt in the MD cohort as of Jul. In 2 of 3 SCD MD-1 pts treated with Compound 1/placebo (currently blinded), Hb increased by >1 g/dL, % reticulocytes decreased, and markers of hemolysis were improved after 14 days of treatment (compared to pre-treatment levels). Hematologic parameters returned to pre-treatment levels 4 to 7 days post-treatment (data not shown) without clinical AEs. […]

[2] = cited from earlier work

Structure (SMILES)	Hemoglobin ([1]; Day 7 (on Tx))	Indirect Bilirubin ([1]; Day 7 (on Tx))	Reticulocytes, % ([1]; Day 7 (on Tx))	Hemoglobin ([1]; Day 14/15 (EOT))	Indirect Bilirubin ([1]; Day 14/15 (EOT))	Reticulocytes, % ([1]; Day 14/15 (EOT))	steady state whole blood AUC higher in HbSC than HbSS genotype patients ([2]; HbSC n=11, HbSS n=220) [%]	steady state whole blood Cmax higher in HbSC than HbSS genotype patients ([2]; HbSC n=11, HbSS n=220) [%]	steady state plasma AUC higher in HbSC than HbSS genotype patients ([2]; human, in vivo) [%]	steady state plasma Cmax higher in HbSC than HbSS genotype patients ([2]; human, in vivo) [%]	increase of AUC in plasma with a high-fat, high-calorie meal ([2]; relative to fasted state) [%]	increase of AUC in whole blood with a high-fat, high-calorie meal ([2]; relative to fasted state) [%]	increase of Cmax in plasma with a high-fat, high-calorie meal ([2]; relative to fasted state) [%]	increase of Cmax in whole blood with a high-fat, high-calorie meal ([2]; relative to fasted state) [%]
O=C([C@H](CO)c1ccccc1)N1CC2=C(C1)CN(S(=O)(=O)c1cnc3c(c1)OCCO3)C2 [Compound 1/Placebo]	7.9 g/dL and 8.8 g/dL	2.5 mg/dL and 0.9 mg/dL and 0.8 mg/dL	6.8% and 5.8%	7.5 g/dL and 9.2 g/dL	3.0 mg/dL and 0.8 mg/dL and 1.0 mg/dL	0.8% and 4.2%	–	–	–	–	–	–	–	–
CC(C)n1nccc1-c1ncccc1COc1cccc(O)c1C=O [voxelotor, 2-hydroxy-6-((2-(1-isopropyl-1H-pyrazol-5-yl)pyridin-3-yl)methoxy)benzaldehyde]	–	–	–	–	–	–	50	45	23	15	42	42	95	45
